These results are taken from EPA's CvTdb concentration-time database.

Data set [1] concerns Rat. The experiment in a line: concentration in plasma after dosing. Particulars: 1 h; dosed: Wyeth-14643; 1.0 mg/kg; oral; Male; Sprague-Dawley.
In data set [2] the test system is Rat. The experiment in a line: concentration in plasma after dosing. The following applies: 3 h; dosed: Bis 2-Chloroethoxy Methane; 40 mg/kg; iv; Male; Harlan Sprague Dawley.
In data set [3] the test system is Rat. Nature of the data set: concentration in thymus after dosing. Particulars: 4 h; dosed: Bis 2-Chloroethoxy Methane; 20 mg/kg; iv; Male; F344.
Data set [4] relates to Rat. The experiment in a line: concentration in thymus after dosing. The following applies: 2 h; dosed: Bis 2-Chloroethoxy Methane; 20 mg/kg; iv; Male; F344.
Data set [5] concerns Rat. The experiment in a line: concentration in plasma after dosing. Particulars: 2 h; dosed: Bis 2-Chloroethoxy Methane; 20 mg/kg; iv; Male; F344.
In data set [6] the test system is Rat. Nature of the data set: concentration in plasma after dosing. Particulars: 40 min; dosed: Bis 2-Chloroethoxy Methane; 20 mg/kg; iv; Female; F344.
In data set [7] the test system is Rat. Nature of the data set: concentration in plasma after dosing. Particulars: 10 min; dosed: Bis 2-Chloroethoxy Methane; 20 mg/kg; iv; Female; F344.
In data set [8] the test system is Rat. The experiment in a line: concentration in liver after dosing. The following applies: 20 min; dosed: Bis 2-Chloroethoxy Methane; 20 mg/kg; iv; Female; F344.
In data set [9] the test system is Rat. The experiment in a line: concentration in thymus after dosing. Particulars: 5 h; dosed: Bis 2-Chloroethoxy Methane; 20 mg/kg; iv; Female; F344.
Data set [10] concerns Rat. Nature of the data set: concentration in liver after dosing. The following applies: 1 h; dosed: Fluorotelomer alcohol 8+2; 24 mg/kg; oral; Male; Harlan Sprague Dawley.
Data set [11] relates to Rat. Nature of the data set: concentration in liver after dosing. The following applies: 6 h; dosed: Fluorotelomer alcohol 8+2; 24 mg/kg; oral; Male; Harlan Sprague Dawley.
Data set [12] deals with Rat. Nature of the data set: concentration in plasma after dosing. Particulars: dosed: Fluorotelomer alcohol 8+2, 40 mg/kg, iv, Female, Harlan Sprague-Dawley.
The test system of data set [13] is Rat. The experiment in a line: concentration in plasma after dosing. The following applies: dosed: Fluorotelomer alcohol 8+2, 12 mg/kg, iv, Male, F344.
Data set [14] has as its system Rat. The experiment in a line: concentration in liver after dosing. The following applies: 3 h; dosed: Fluorotelomer alcohol 8+2; 24 mg/kg; oral; Male; Harlan Sprague Dawley.
Data set [15] relates to Rat. The experiment in a line: concentration in plasma after dosing. The following applies: dosed: Fluorotelomer alcohol 8+2, 12 mg/kg, oral, Male, Harlan Sprague Dawley.
In data set [16] the test system is Rat. Nature of the data set: concentration in plasma after dosing. Particulars: dosed: Fluorotelomer alcohol 8+2, 12 mg/kg, oral, Male, Harlan Sprague Dawley. This is another data set of the same source.
Data set [17] relates to Rat. The experiment in a line: concentration in plasma after dosing. Particulars: 5 h; dosed: Di-n-butyl phthalate; 20 mg/kg; iv; Male; Sprague-Dawley.
The subject of data set [18] is Rat. Nature of the data set: concentration in plasma after dosing. The following applies: 4 h; dosed: Di-n-butyl phthalate; 20 mg/kg; iv; Male; Sprague-Dawley.
Data set [19] deals with Rat. Nature of the data set: concentration in liver after dosing. Particulars: 864 h; dosed: Perfluorodecanoic acid; 10 mg/kg; oral; Female; Harlan Sprague Dawley.
Data set [20] deals with Rat. The experiment in a line: concentration in plasma after dosing. Particulars: dosed: Perfluorodecanoic acid, 2 mg/kg, oral, Male, Harlan Sprague Dawley.
The test system of data set [21] is Rat. The experiment in a line: concentration in thymus after dosing. The following applies: 20 min; dosed: Thiodiglycolic Acid; 20 mg/kg; iv; Female; Harlan Sprague Dawley.
In data set [22] the test system is Rat. Nature of the data set: concentration in thymus after dosing. Particulars: 20 min; dosed: Thiodiglycolic Acid; 20 mg/kg; iv; Female; Harlan Sprague Dawley. This is another data set of the same source.
Data set [23] deals with Rat. Nature of the data set: concentration in liver after dosing. Particulars: 4 h; dosed: Thiodiglycolic Acid; 20 mg/kg; iv; Female; Harlan Sprague Dawley.
Data set [24] has as its system Rat. Nature of the data set: concentration in liver after dosing. Particulars: 1 h; dosed: Thiodiglycolic Acid; 20 mg/kg; iv; Female; Harlan Sprague Dawley.
For data set [25], the system named is Rat. The experiment in a line: concentration in thymus after dosing. Particulars: 6.667 h; dosed: Thiodiglycolic Acid; 20 mg/kg; iv; Female; Harlan Sprague Dawley.
The test system of data set [26] is Rat. Nature of the data set: concentration in heart after dosing. The following applies: 8 h; dosed: Thiodiglycolic Acid; 20 mg/kg; iv; Female; Harlan Sprague Dawley.
Data set [27] deals with Rat. Nature of the data set: concentration in plasma after dosing. The following applies: dosed: dichloroacetic acid, 10 mg/kg, oral, Male, Harlan Sprague Dawley.
The test system of data set [28] is Rat. Nature of the data set: concentration in plasma after dosing. The following applies: 2 h; dosed: dichloroacetic acid; 60 mg/kg; iv; Female; Harlan Sprague-Dawley.
Data set [29] has as its system Rat. The experiment in a line: concentration in plasma after dosing. Particulars: 2 min; dosed: dichloroacetic acid; 10 mg/kg; iv; Male; F344.
For data set [30], the system named is rat. Nature of the data set: concentration in plasma after dosing. Particulars: dosed: trichloroethylene, 600.4 ppm, inhalation, duration: 4 hr, female, Fischer-344.

`Cc1cccc(Nc2cc(Cl)nc(SCC(=O)O)n2)c1C` came in with a concentration in plasma in the data set with Rat [1] of 755 ng/mL.

Take `ClCCOCOCCCl` [Bis 2-Chloroethoxy Methane]: the concentration in plasma in the data set on Rat [2] was 362 ng/mL; in the data set with Rat [5] it was 99.4 ng/mL; in the data set on Rat [6], 1720 ng/mL; in the data set with Rat [7], 9960 ng/mL. Besides, the values for the concentration in thymus in the data set with Rat [3], in the data set on Rat [4] and in the data set on Rat [9] were 149 ng/g, 153 ng/g and 79.1 ng/g, respectively. This compound gave a concentration in liver in the data set with Rat [8] of 1090 ng/g.

`OCCC(F)(F)C(F)(F)C(F)(F)C(F)(F)C(F)(F)C(F)(F)C(F)(F)C(F)(F)F` [Fluorotelomer alcohol 8+2]: the values for the concentration in liver with Rat [10], in the data set with Rat [11] and in the data set on Rat [14] were 4670 ng/g, 1220 ng/g and 3080 ng/g, respectively. The concentration in plasma with Rat [12] (0.75 h) is 2220 ng/mL; with Rat [12] (12 h) it was 28.7 ng/mL; with Rat [13] (5 min), 3710 ng/mL; in the data set on Rat [13] (3 h) it was 125 ng/mL; in the data set with Rat [15] (0.5 h) it was 374 ng/mL; with Rat [15] (9 h), 12.8 ng/mL. Moreover, the concentration in plasma with Rat [16] (5 min) worked out at 2.04 ng/mL; with Rat [16] (3 h), 147 ng/mL.

As for `CCCCOC(=O)c1ccccc1C(=O)O` [Mono-n-butyl phthalate], the concentration in plasma is 600 ng/mL with Rat [17] and 726 ng/mL in the data set on Rat [18].

On to `O=C(O)C(F)(F)C(F)(F)C(F)(F)C(F)(F)C(F)(F)C(F)(F)C(F)(F)C(F)(F)C(F)(F)F` [Perfluorodecanoic acid], for which the concentration in liver in the data set with Rat [19] amounted to 43600 ng/g. Besides, the figures for the concentration in plasma in the data set on Rat [20] (2 h), with Rat [20] (528 h) and in the data set with Rat [20] (3360 h) were 4900 ng/mL, 2050 ng/mL and 516 ng/mL, respectively.

As to `O=C(O)CSCC(=O)O` [Thiodiglycolic Acid], the values for the concentration in thymus with Rat [21], in the data set on Rat [22] and in the data set on Rat [25] were 5770 ng/g, 8060 ng/g and 329 ng/g, respectively. Besides, the concentration in liver with Rat [23] stood at 7460 ng/g; with Rat [24] it was 62700 ng/g. The compound further gave a concentration in heart in the data set with Rat [26] of 393 ng/g.

As to `O=C(O)C(Cl)Cl` [dichloroacetic acid], the concentration in plasma was found to be 862 ng/mL in the data set with Rat [27] (10 min), 167 ng/mL in the data set on Rat [27] (50 min), 1170 ng/mL with Rat [28] and 30400 ng/mL with Rat [29].

As for `O=C(O)C(Cl)(Cl)Cl` [trichloroacetic acid], the concentration in plasma with rat [30] (0.1633 h) was 10200 ng/mL; in the data set on rat [30] (0.5306 h) it was 11400 ng/mL; with rat [30] (0.898 h) it was 11800 ng/mL; in the data set on rat [30] (1.633 h), 13400 ng/mL; with rat [30] (2.122 h) it was 15800 ng/mL; with rat [30] (5.061 h), 18300 ng/mL. Moreover, the concentration in plasma is 5730 ng/mL with rat [30] (21.1 h), 2750 ng/mL with rat [30] (29.06 h) and 1150 ng/mL in the data set on rat [30] (46.08 h).
